The structures appear in SMILES notation. Bounds are passed on as bounds.

In experiment [1] the test system is PARP inhibitor resistant SUM149PT cells. The experiment in a line: PAR and γH2AX high content imaging in PARPi resistant cells. It is filed as cell-based, human. The conditions noted are these: 10 μM, 2 hours, 3 Gy IR; four PARPi resistant clones and wild type. As to the method: PARPi resistant SUM149PT cells clone 6, 10, 11, 18 together with the wild type (WT) were treated with 10 μM JA2131 for 2 hours, irradiated 3Gy ionizing radiation and then fixed, immunofluorescence labelled for PAR and γH2AX. High content imaging showing specific accumulation of PAR and DNA damage induction observed with γH2AX signal in cells treated with PARGi. (Right) Immunoblotting of total cell-lysates of PARP1i resistant SUM149PT cells showing no change in the PARG (upper panel) and p53 (middle panel) protein expression level. Anti-actin was used as loading control (bottom panel).
PARG was evaluated as a therapeutic option for patients who become PARP1 inhibitor resistant. PARP1 inhibitor resistant SUM149PT triple negative breast cancer cell-lines were generated with 100 nM talazoparib for 5 constitutive days and then with 15-50 nM talazoparib until resistant cells grew into clones. The resulting resistant cell clones were propagated and expanded to generate PARP inhibitor resistant SUM149PT derivative cells that no longer responded to PARP1i treatment. It was then investigated whether the PARP resistant breast cancer cells would respond to the PARG inhibitors. Four PARPi resistant SUM149PT cell clones together with wild type cells were treated with JA2131. PAR accumulation and γH2AX foci formation were analyzed by high content imaging (FIG. 21).

Experiment [2] has as its target PARG proteins in PC3 cells (Homo sapiens (Human), UniProt Q86W56). The experiment in a line: Cellular thermal shift assay (CETSA), PARG. It is filed as cell-based. The conditions noted are these: 10 μM, 2 h. As to the method:
PC3 cells treated with 10 μM JA2131 or DMSO were temperature shocked as described in the Examples and the resulting non-aggregated proteins were analyzed with Anti-PARG or Anti-PCNA antibody. Anti-Histone H3 was used as loading control.
Cellular thermal shift assay (CETSA). CETSA was performed as described in Molina et al., 2013. Briefly, PC3 cells were treated with 10 μM JA2131 or an equivalent volume of DMSO for 2 h, washed three times with PBS and extracted for total cell lysate. 10% glycerol was added to the samples before subjecting to heat. Gradient thermal cycler (C1000 Touch, Bio-Rad) was used to heat samples at 42, 57, 66, 72, 77 and 85° C. for 3 min and chilled on ice for 5 min. Then, samples were centrifuged at 14,000 rpm for 20 min at 4° C. Supernatants were carefully removed and analyzed by Western blotting analysis.

The subject of experiment [3] is PC3 cells. The experiment in a line: PAR / γH2AX immuno-staining and high content imaging after IR. It is filed as cell-based, human. The conditions noted are these: PC3, 2 h treatment, 7 Gy, 1 h recovery. The procedure:
FIGS. 13a-g show PARGi sensitizes cells to ionizing radiation damage. (FIG. 13a) A low-resolution fixed intensity image-montage of the total cell numbers 3×(3×3) imaged per experimental group. A high level of PAR accumulation and γH2AX foci formation in cells exposed to PARGi. PC3 cells treated DMSO or PARG inhibitors (2120 or 2131) for 2 hours, irradiated 7Gy, recovered for 1 hour were fixed and immuno-stained with Poly(ADP)-Ribose (PAR, green), γH2AX (red) and Hoechst (blue) antibodies. Cells were analyzed with quantitative high content imaging. (FIGS. 13b-e) Quantitative analysis of PAR intensity (FIG. 13b), γH2AX intensities (FIG. 13c), the number of cells showing PAR/γH2AX co-localizations (FIG. 13d) and nucleus count for the total number of cells analyzed for each group (FIG. 13e). […] Cells were treated with 2131 for an hour followed by 7Gy ionizing radiation then allowed to recover for 2 h before total cell-lysate preparation and immunoblotting with anti-PAR (upper panel) followed by anti-PARG (middle) and Anti-PCNA (lower) as controls. […] Anti-PAR (green), Anti-γH2AX (red) and Hoechst 33342 (blue). Scale bar 25 μm.
Immuno-staining and imaging. PC3 cells were grown to 75% confluence in 24-well 25 μm film bottom Eppendorf black cell Imaging plates (0030741005), treated with either DMSO or designated inhibitors for 2 hours, irradiated 7 Gy X-ray and allowed to recover for an hour before fixing with 4% (wt/vol) paraformaldehyde, pH 8.0. All subsequent steps were performed at pH8.0. Cells were washed 6-7 times with PBS, permeabilized 0.5% Triton X-100 in PBS on ice for 20 min, blocked overnight with PBS/5% Goat serum/3% BSA/0.5% Triton X-100. Cells were incubated with primary antibody 1:250 dilution in PBS/5% BSA/0.5% Triton X-100 overnight at 4° C. Following 6× wash with PBS pH 8.0, cells were exposed to fluorescence labelled secondary antibody diluted 1:500 in PBS/5% BSA/0.5% Triton X-100 for 1 hour at room temperature. Following 6-7× PBS washes, cells were fixed again with 4% PFA at room temperature for 20 min. […]

For experiment [4], the system named is MDA-MB-231 control and PARG-KD cells. The experiment in a line: Sulforhodamine B (SRB) cytotoxicity, control vs PARG-KD cells. It is filed as cell-based, human. The conditions noted are these: 72 h. The source says:
Sulforhodamine B (SRB) Cytotoxicity Assay.

PARG proteins in PC3 cells, sequence (Q86W56 whole entry): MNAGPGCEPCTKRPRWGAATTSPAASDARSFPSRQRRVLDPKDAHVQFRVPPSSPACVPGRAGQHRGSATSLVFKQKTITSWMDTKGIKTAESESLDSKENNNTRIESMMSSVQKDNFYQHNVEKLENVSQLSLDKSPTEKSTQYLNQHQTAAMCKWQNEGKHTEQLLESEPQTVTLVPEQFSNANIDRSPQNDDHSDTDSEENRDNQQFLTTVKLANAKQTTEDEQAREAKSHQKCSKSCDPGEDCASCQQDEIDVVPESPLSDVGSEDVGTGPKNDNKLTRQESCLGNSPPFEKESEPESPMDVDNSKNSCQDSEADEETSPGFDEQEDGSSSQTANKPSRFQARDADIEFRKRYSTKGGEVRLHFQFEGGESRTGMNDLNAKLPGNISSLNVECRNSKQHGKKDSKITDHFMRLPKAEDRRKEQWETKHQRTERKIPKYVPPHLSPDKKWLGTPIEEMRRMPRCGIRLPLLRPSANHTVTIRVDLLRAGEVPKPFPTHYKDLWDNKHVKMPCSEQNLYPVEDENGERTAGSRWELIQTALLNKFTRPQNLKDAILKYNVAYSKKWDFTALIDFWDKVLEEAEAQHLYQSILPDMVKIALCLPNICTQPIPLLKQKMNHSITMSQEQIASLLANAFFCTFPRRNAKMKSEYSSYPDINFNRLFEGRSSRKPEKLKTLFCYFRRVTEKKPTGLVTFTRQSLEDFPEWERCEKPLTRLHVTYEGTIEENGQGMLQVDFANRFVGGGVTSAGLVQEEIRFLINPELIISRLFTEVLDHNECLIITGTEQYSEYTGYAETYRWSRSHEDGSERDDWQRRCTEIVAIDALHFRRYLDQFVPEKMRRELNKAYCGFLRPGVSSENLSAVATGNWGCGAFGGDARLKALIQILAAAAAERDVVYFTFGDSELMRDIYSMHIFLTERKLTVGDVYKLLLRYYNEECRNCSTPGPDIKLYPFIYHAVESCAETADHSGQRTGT

Turning to `O=C1C(Cl)=C(Cl)C(Cl)(Cl)C(Cl)=C1Cl` [JA2131], in experiment [1], the “PAR accumulation and γH2AX staining” value was “increased PAR accumulation as well as γH2AX staining”. Besides, the “thermal stabilization of PARG proteins in cells” value in experiment [2] amounted to 9 °C. For the same compound, in experiment [3], the “cells showing colocalization of PAR and γH2AX foci” value is recorded as “at least 50%”; the “increase in PAR accumulation following IR in comparison to untreated cells” value is 20 fold; the “γH2AX staining and foci formation, PARGi-treated vs control cells” value is more than 10 fold. Also, in experiment [4], the “IC50 value for PARG-depleted cells compared to control cells” value is recorded as approximately 10 fold and the “PARG-KD cells that responded to the PARGi” value worked out at 50%.
